Earlier results in patent US20100136097A1, “Systems for modulating inflammation” (Searete LLC, a limited liability corporation of the State …, priority 2008, published 2010).
One block for each compound: values may come before it.

Assays:
[1] = mice
[2] = single agent, infused at 400 mg over one hour
[3] = tested on: proteasomal activity in cultured breast cancer cells; conditions: through binding of copper
[4] = tested on: Src family kinases (Src, Lck, Yes, Fyn); conditions: at nanomolar concentrations

Compound: Cl.Cl.Nc1ccccc1Oc1ccc2c(N)nsc2c1 [Example M62812, 3-amino-6-(2-aminophenoxy)-1,2-benzisothiazole dihydrochloride]
prevention of lethal septic shock [1]: prevents lethal septic shock

inhibition of CpG-induced Src family kinase activation, or its dependent cellular responses (Src family kinase): does not inhibit
Compound: CCN(CC)CCCC(C)Nc1ccnc2cc(Cl)ccc12 (centres unmarked) [Chloroquine]

Compound: CCN(CC)CCCC(C)Nc1ccnc2cc(Cl)ccc12.O=P(O)(O)O.O=P(O)(O)O (centres unmarked) [Chloroquine phosphate, 7-chloro-4-[[4-(diethylamino)-1-methylbutyl]amino]quinoline phosphate (1:2)]
tolerability of infusion [2]: without complication

Compound: CCN(CC)C(=S)SSC(=S)N(CC)CC [Disulfiram, 1-(diethylthiocarbamoyldisulfanyl)-N,N-diethyl-methanethioamide]
proteasomal activity [3]: inhibits proteasomal activity

Compound: Cc1nc(Nc2ncc(C(=O)Nc3c(C)cccc3Cl)s2)cc(N2CCN(CCO)CC2)n1.O [dasatinib, N-(2-chloro-6-methylphenyl)-2-[[6-[4-(2-hydroxyethyl)-1-piperazinyl]-2-methyl-4-pyrimidinyl]amino]-5-thiazolecarboxamide, monohydrate]
inhibition of Src family kinases (Src, Lck, Yes, Fyn) [4]: inhibits
